Assay results: the OligoGym collection
Several values for one entry are separate records, joined by “and”; a condition that tells them apart may be missing. Equal values may be shown once. After the bases stand the sugars from the 5' end (letter, count) and the backbone: PS all phosphorothioate, else s phosphorothioate and o phosphodiester by linkage. Methylation of C is not given here. e = 2'-O-(2-methoxyethyl) (MOE); k = constrained ethyl (cEt); d = 2'-deoxy (DNA)

Target: IRF4
Conditions: ASO

Row | Sequence | target mRNA inhibition (SK-MEL-28, 4 µM) [%] | target mRNA inhibition (MM.1R, 1 µM) | also measured
1 | TCACTATTAAACAGCA (sugars k3 d10 k3, PS) | 16 | – | –
2 | TCACTTGCCGCCGCCT (sugars k3 d10 k3, PS) | 49 | – | –
3 | TCAGATACACACCCTC (sugars k3 d10 k3, PS) | 37 | – | –
4 | TCAGTTGTAAATGAGT (sugars k3 d10 k3, PS) | 72 | – | –
5 | TCAGTTTGTGAAGCAT (sugars kkddddddddddkeke, PS) | – | 33% | –
6 | TCAGTTTGTGAAGCAT (sugars kkkdddddddddkeke, PS) | – | 53% | –
7 | TCATATGGCTAAACCT (sugars k3 d10 k3, PS) | 49 | – | –
8 | TCATCCGAAAAGACTG (sugars k3 d10 k3, PS) | – | 16% | –
9 | TCATTAGAAAGCCCTC (sugars k3 d10 k3, PS) | – | -19% | –
10 | TCCAACAGGCGGACAC (sugars k3 d10 k3, PS) | 29 | – | –
11 | TCCAACCCTAGATAAC (sugars k3 d10 k3, PS) | – | -5% | –
12 | TCCACTTCTGAATTCC (sugars k3 d10 k3, PS) | 19 | – | –
13 | TCCACTTTATCAAGAC (sugars k3 d10 k3, PS) | 65 | – | –
14 | TCCATATGACCCAGTG (sugars k3 d10 k3, PS) | 66 | – | –
15 | TCCCAAGATCGAGCGG (sugars k3 d10 k3, PS) | 16 | – | –
16 | TCCCAGAGTTGTTCCA (sugars k3 d10 k3, PS) | 26 | – | –
17 | TCCGAAAAGACTGGAG (sugars k3 d10 k3, PS) | – | -7% | –
18 | TCCGGGTGTGGCTGAT (sugars k3 d10 k3, PS) | – | 26% | –
19 | TCCTAAATCACCCTGG (sugars k3 d10 k3, PS) | 21 | – | –
20 | TCCTCCTCGCGGTTGT (sugars k3 d10 k3, PS) | 59 | – | –
21 | TCCTGAATTTACAGCA (sugars k3 d10 k3, PS) | 48 | – | –
22 | TCGCAGGAGCGCGGAG (sugars k3 d10 k3, PS) | -37 | – | –
23 | TCGGAGCGACCCAAAT (sugars k3 d10 k3, PS) | – | 12% | –
24 | TCTAATGGTGCTCCTA (sugars k3 d10 k3, PS) | 51 | – | –
25 | TCTATAGTGTTCCAGG (sugars e1 k2 d9 k2 e2, PS) | – | 58% | target mRNA inhibition (MM.1R, 0.074 µM): 22%; target mRNA inhibition (MM.1R, 0.222 µM): 33%; target mRNA inhibition (MM.1R, 0.666 µM): 52%; target mRNA inhibition (MM.1R, 2 µM): 74%
26 | TCTATAGTGTTCCAGG (sugars k3 d9 k3 e1, PS) | – | 52% | –

Row | Sequence | target mRNA inhibition (SK-MEL-28, 4 µM) [%] | target mRNA inhibition (MM.1R, 1 µM) | also measured
27 | TCTATAGTGTTCCAGG (sugars kddddddddddkekek, PS) | – | 16% | –
28 | TCTATAGTGTTCCAGG (sugars kkddddddddddkeke, PS) | – | 66% | target mRNA inhibition (MM.1R, 0.074 µM): 15%; target mRNA inhibition (MM.1R, 0.222 µM): 32%; target mRNA inhibition (MM.1R, 0.666 µM): 58%; target mRNA inhibition (MM.1R, 2 µM): 83%
29 | TCTCCAAAGCATAGAG (sugars k3 d10 k3, PS) | – | -8% | –
30 | TCTGGATTGCTGATGT (sugars k3 d10 k3, PS) | – | 36% | –
31 | TCTGTAGGGCGACTAA (sugars k3 d10 k3, PS) | 65 | – | –
32 | TCTGTATAGTTCTCAA (sugars k3 d10 k3, PS) | – | 42% and 40% | target mRNA inhibition (MM.1R, 0.0625 µM): -2% and 0%; target mRNA inhibition (MM.1R, 0.25 µM): 16% and 26%; target mRNA inhibition (MM.1R, 4 µM): 69% and 71%
33 | TCTTCCAGCAAGACCT (sugars k3 d10 k3, PS) | 28 | – | –
34 | TCTTGAATAGAGGAAT (sugars k3 d10 k3, PS) | 42 | – | –
35 | TCTTTGAAGTGCTGTG (sugars k3 d10 k3, PS) | 57 | – | –
36 | TCTTTTTAGTTCATAC (sugars k3 d10 k3, PS) | 26 | – | –
37 | TGAAAGACCCCAGCTA (sugars k3 d10 k3, PS) | 4 | – | –
38 | TGAAATGTCAAACCCT (sugars k3 d10 k3, PS) | 54 | – | –
39 | TGAACGGAAGTTTACA (sugars k3 d10 k3, PS) | – | 14% | –
40 | TGAATAGAGGAATGGC (sugars k3 d10 k3, PS) | 21 | – | –
41 | TGACAAGAACTGCTGT (sugars k3 d10 k3, PS) | 18 | – | –
42 | TGACATCATTTAGGTA (sugars k3 d10 k3, PS) | 54 | – | –
43 | TGACATGCTTTGTCCT (sugars k3 d10 k3, PS) | 59 | – | –
44 | TGAGAGACGAAAACAG (sugars k3 d10 k3, PS) | -9 | – | –
45 | TGAGATATTCCTCTCA (sugars k3 d10 k3, PS) | – | 18% | –
46 | TGATAGCTGAGCTGAT (sugars kkddddddddddkeke, PS) | – | -17% | –
47 | TGATAGTGGTGATGTC (sugars k3 d10 k3, PS) | 54 | – | –
48 | TGATGTGATAGCTGAG (sugars k2 d9 e3 k2, PS) | – | 47% | –
49 | TGATGTGATAGCTGAG (sugars kddddddddddkekek, PS) | – | 18% | –
50 | TGATGTGATAGCTGAG (sugars kkddddddddddkeke, PS) | – | 54% | –
51 | TGATGTGATAGCTGAG (sugars kkdddddddddekeke, PS) | – | 60% | –
52 | TGATGTGATAGCTGAG (sugars kkdddddddddkdkdk, PS) | – | 14% | –
